The source of these data is ChEMBL document CHEMBL3621140, “Sulfonamide derivatives containing dihydropyrazole moieties selectively and potently inhibit MMP-2/MMP-9: Design, synthesis, inhibitory activity and 3D-QSAR analysis” (Bioorg Med Chem Lett, 2015).

Series [1] has as its system A549. In words: Induction of apoptosis in human A549 cells assessed as early apoptotic cells level at 2 uM by AnnexinV-FITC and propidium iodide staining based flow cytometry (reference value: 5.08%). It is filed as functional.
Series [2] deals with Matrix metalloproteinase-9 (Homo sapiens, UniProt P14780). Put plainly: Inhibition of APMA-activated human recombinant MMP9 incubated for 5 mins using 4-nitrophenylacetate substrate by esterase assay.
Series [3] concerns A549. In words: Induction of apoptosis in human A549 cells assessed as late apoptotic cells level at 16 uM by AnnexinV-FITC and propidium iodide staining based flow cytometry (reference value: 8.81%). It is filed as functional. A general note: In flow cytometry, cells or beads pass a laser one at a time.
The test system of series [4] is A549. Put plainly: Induction of apoptosis in human A549 cells assessed as early apoptotic cells level at 16 uM by AnnexinV-FITC and propidium iodide staining based flow cytometry (reference value: 5.08%). Format: functional.
The subject of series [5] is A549. In words: Induction of apoptosis in human A549 cells assessed as necrotic cells level at 16 uM by AnnexinV-FITC and propidium iodide staining based flow cytometry (reference value: 0.964%). Format: functional.
The nature of series [6]: Cytotoxicity against HEK293T cells incubated for 48 hrs by MTT assay. The note with it: human. Format: cell-based, HEK-293T. A general note: Tetrazolium assays rely on reduction of a dye to a coloured formazan, in cell work by metabolically active cells.
In series [7] the test system is A549. In words: Induction of apoptosis in human A549 cells assessed as necrotic cells level at 2 uM by AnnexinV-FITC and propidium iodide staining based flow cytometry (reference value: 0.964%). Format: functional.
Series [8] concerns A549. In words: Induction of apoptosis in human A549 cells assessed as necrotic cells level at 4 uM by AnnexinV-FITC and propidium iodide staining based flow cytometry (reference value: 0.964%). It is filed as functional.
In series [9] the test system is A549. In words: Induction of apoptosis in human A549 cells assessed as early apoptotic cells level at 4 uM by AnnexinV-FITC and propidium iodide staining based flow cytometry (reference value: 5.08%). Format: functional.
Series [10] relates to A549. In words: Induction of apoptosis in human A549 cells assessed as late apoptotic cells level at 2 uM by AnnexinV-FITC and propidium iodide staining based flow cytometry (reference value: 8.81%). It is filed as functional.
The next series has as its system MCF7. Put plainly: Antiproliferative activity against human MCF7 cells incubated for 48 hrs by MTT assay. It is filed as functional, cell-based. To be noted: MCF7, 48 h.
In series [11] the test system is A549. Put plainly: Induction of apoptosis in human A549 cells assessed as viable cells at 16 uM by AnnexinV-FITC and propidium iodide staining based flow cytometry (reference value: 85.3%). Format: functional. The note with it: read-out: Activity.
Another series relates to HeLa. In words: Antiproliferative activity against human HeLa cells incubated for 48 hrs by MTT assay. It is filed as functional, cell-based.
The test system of series [12] is A549. In words: Induction of apoptosis in human A549 cells assessed as viable cells at 4 uM by AnnexinV-FITC and propidium iodide staining based flow cytometry (reference value: 85.3%). To be noted: read-out: Activity. It is filed as functional.
The test system of series [13] is A549. In words: Induction of apoptosis in human A549 cells assessed as late apoptotic cells level at 4 uM by AnnexinV-FITC and propidium iodide staining based flow cytometry (reference value: 8.81%). It is filed as functional.
Series [14] addresses 72 kDa type IV collagenase (Homo sapiens, UniProt P08253). In words: Inhibition of APMA-activated human recombinant MMP2 incubated for 5 mins using 4-nitrophenylacetate substrate by esterase assay. The note with it: read-out: IC50.
For series [15], the system named is A549. Put plainly: Induction of apoptosis in human A549 cells assessed as viable cells at 2 uM by AnnexinV-FITC and propidium iodide staining based flow cytometry (reference value: 85.3%). It is filed as functional. To be noted: read-out: Activity.
The next series deals with HepG2. Put plainly: Antiproliferative activity against human HepG2 cells incubated for 48 hrs by MTT assay. It is filed as functional, cell-based. The note with it: HepG2, 48 h.
In series [16] the test system is A549. Put plainly: cells. To be noted: Homo sapiens, A549, 48 h.
The test system of series [17] is A549. Put plainly: Induction of apoptosis in human A549 cells by AnnexinV-FITC and propidium iodide staining based flow cytometry. It is filed as functional, cell-based.

72 kDa type IV collagenase, sequence (P08253 whole entry): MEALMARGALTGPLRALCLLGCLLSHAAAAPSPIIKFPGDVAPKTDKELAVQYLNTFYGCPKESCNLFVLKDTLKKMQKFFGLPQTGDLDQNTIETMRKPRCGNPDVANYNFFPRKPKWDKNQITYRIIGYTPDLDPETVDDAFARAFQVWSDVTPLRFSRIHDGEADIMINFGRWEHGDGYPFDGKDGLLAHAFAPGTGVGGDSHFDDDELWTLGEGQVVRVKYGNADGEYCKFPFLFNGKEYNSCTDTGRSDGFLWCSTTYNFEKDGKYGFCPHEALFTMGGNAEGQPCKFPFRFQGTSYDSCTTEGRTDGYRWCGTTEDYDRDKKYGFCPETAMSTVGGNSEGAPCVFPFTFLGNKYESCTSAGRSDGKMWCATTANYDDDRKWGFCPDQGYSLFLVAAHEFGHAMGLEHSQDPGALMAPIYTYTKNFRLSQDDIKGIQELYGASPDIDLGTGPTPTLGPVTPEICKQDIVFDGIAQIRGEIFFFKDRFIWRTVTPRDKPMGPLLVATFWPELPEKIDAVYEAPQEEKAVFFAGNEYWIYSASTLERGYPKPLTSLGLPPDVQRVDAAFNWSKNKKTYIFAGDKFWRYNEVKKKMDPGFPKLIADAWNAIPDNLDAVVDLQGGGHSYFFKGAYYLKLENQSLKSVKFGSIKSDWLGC
Matrix metalloproteinase-9, sequence (P14780 whole entry): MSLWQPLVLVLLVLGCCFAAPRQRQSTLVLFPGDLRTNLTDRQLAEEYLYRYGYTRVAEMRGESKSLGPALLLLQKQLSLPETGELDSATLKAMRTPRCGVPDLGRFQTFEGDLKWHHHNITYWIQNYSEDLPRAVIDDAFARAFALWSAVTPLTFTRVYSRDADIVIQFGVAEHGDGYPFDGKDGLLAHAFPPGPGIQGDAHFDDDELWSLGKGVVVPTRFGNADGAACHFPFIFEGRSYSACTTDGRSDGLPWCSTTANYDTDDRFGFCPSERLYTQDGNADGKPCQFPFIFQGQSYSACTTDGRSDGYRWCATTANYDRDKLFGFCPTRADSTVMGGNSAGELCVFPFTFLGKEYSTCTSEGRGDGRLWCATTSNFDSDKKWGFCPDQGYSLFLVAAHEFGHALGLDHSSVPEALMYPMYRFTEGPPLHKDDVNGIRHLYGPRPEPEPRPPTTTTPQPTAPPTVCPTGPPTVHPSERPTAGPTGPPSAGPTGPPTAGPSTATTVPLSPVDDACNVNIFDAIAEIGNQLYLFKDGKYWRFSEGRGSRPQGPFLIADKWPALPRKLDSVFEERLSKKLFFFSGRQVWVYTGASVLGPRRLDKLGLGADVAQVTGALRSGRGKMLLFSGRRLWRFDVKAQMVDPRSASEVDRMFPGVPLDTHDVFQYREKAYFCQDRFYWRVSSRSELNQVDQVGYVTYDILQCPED

For the molecule `Cc1ccc(C2=NN(c3ccc(S(N)(=O)=O)cc3)C(c3cccc4ccccc34)C2)c(C)c1` (stereo not given), the Activity in the series on A549 [1] worked out at 5.91%; in the series with A549 [3], 16.9%; in the series with A549 [4], 3.88%; in the series on A549 [5], 0.868%; with A549 [7] it was 1.1%; in the series with A549 [8], 1.14%. Moreover, the Activity in the series with A549 [9] is 4.84%; in the series with A549 [10], 10.2%; in the series on A549 [13], 12.9%; in the series with A549 [17], “Dose-dependent effect”. Further, the IC50 (as a rule, the concentration at which inhibition is half-maximal) in series [2] amounted to 1.87 µM; in the series with MCF7 it was 18.1 µM; in the series with HeLa, 12.1 µM; in series [14], 0.21 µM; with HepG2 it was 6.99 µM; in the series on A549 [16], 1.9 µM. Also, in series [6], the CC50 (usually the concentration giving 50% cytotoxicity) at 48 h was 52.5 µM. Besides, the viability at 16 µM with A549 [11] amounted to 78.3%. Further, the viability at 4 µM in the series on A549 [12] is 81.1%. The viability at 2 µM in the series with A549 [15] was found to be 82.8%.
